# “And” between values parts separate entries of the source, which are not always exact repeats. Identical values can stand only once. “Also recorded” adds a separate entry of the source.
# Assays:
# [1] = tested on: middle cerebral artery occlusion (MCAO) in rats; experiment: Body swing test (% right swing) after MCAO; type: in vivo, Sprague Dawley rats
# Experimental: (§1) 4-AP was evaluated for its ability to promote functional sensorimotor improvement following ischemic stroke in rats with stable motor deficits at times remote from their ischemic events. The animal model mimics the conditions in human ischemic stroke and is produced by middle cerebral artery occlusion (MCAO), which results in extensive infarction in cerebral cortex and striatum, including the cortical spinal tract (white matter). In particular, the MCAO model in Sprague Dawley rats that was utilized in the experiments presented below mimics the conditions in human ischemic stroke. In this experiment, Sprague Dawley rats were anesthetized, subjected to a surgery resulting in middle cerebral artery occlusion (MCAO), treated with and without 4-aminopyridine and behavioral assessments were performed as described below. Surgical Procedure: A small focal stroke (infarct) was made on the right side of the surface of the brain (cerebral cortex) by middle cerebral artery occlusion (MCAO). The right side of the head was shaved with electric clippers (patch of approx 3×5 cm between eye and ear). The region was carefully cleaned with septisol. Using aseptic technique, an incision was made midway between the eye and eardrum canal. The temporalis muscle was isolated, bisected, and reflected. A small window of bone was removed via drill and rongeurs (subtemporal craniectomy) to expose the middle cerebral artery (MCA). Care was taken not to remove the zygomatic arch or to transect the facial nerve that would impair the ability of the animal to chew after surgery. […] The MCA was then transected. The temporalis muscle was then repositioned, and the incision was closed subcutaneously with sutures. The skin incision was closed with surgical staples (2-3 required). Throughout the procedure, body temperature was maintained at 37.0°±1° C., using a self-regulating heating pad connected to a rectal thermometer. Dosing: Rats were treated in accordance with the dosing schedule shown in Tables 1A, 1B, and FIG. 2, with each Phase being a two week period of time. A solution of 4-AP was used in this experiment. Dosing was started at 4 weeks after ischemic event. Treatment groups: Dosing was started 4 weeks after pMCAO surgery. During these 4 weeks, weekly behavioral assessments, as defined below, were performed. Two dose levels of 4-AP plus vehicle control were assessed, with treatment starting at 4 weeks after ischemic event. All dosing was via gastric gavage, volume not to exceed 2 mL/kg. Animals were given the first dose and behavioral assessments were performed starting 60 minutes after dosing. Animals then received the second dose that day at the appropriate time and b.i.d (preferably every 12 hours) thereafter for 2 more days (3 total days of dosing, 5 total doses). One hour after the 5th dose, animals were subjected to behavioral assessments as defined below. Following the final behavioral assessment, drug was withdrawn for 10 or 11 days, behavior was re-assessed, and then animals were re-challenged with a cross-over treatment (Phase II of Table 1B) as described in Tables 1A, 1B, followed by the same behavioral testing and dosing regimen. This cross-over was repeated one more time as well (Phase III of Table 1B) (see FIG. 2). Behavioral test details: Behavioral evaluations were done by investigators blinded to treatment assignment. As described above, behavioral assessments were timed exactly with dosing times. Animals were given the first dose, behavioral assessments were performed starting 60 minutes later, and blood was collected 90 minutes after dosing. Animals then received the second dose that day at the appropriate time and b.i.d (preferably every 12 hours) thereafter for 2 more days (3 total days of dosing, 5 total doses). One hour after the 5th dose, animals were subjected to behavioral testing. […]
# [2] = tested on: middle cerebral artery occlusion (MCAO) in rats; experiment: Hindlimb placing test after MCAO; type: in vivo, Sprague Dawley rats; design: Hindlimb Placing Total Score, Mean: scale not given here
# Experimental: as §1
# [3] = typical; (94 ng·mL^−1); cited from earlier work
# [4] = Group II, D30, individual animals
# [5] = Group II, D32, individual animals
# [6] = Group II, D58, individual animals
# [7] = Group II, D60, individual animals
# [8] = Group III, D44, high dose phase (inferred), mean of N 15
# [9] = Group III, D46, high dose phase (inferred), mean of N 15
# [10] = Group III, D58, low dose phase (inferred), mean of N 15
# [11] = Group III, D60, low dose phase (inferred), mean of N 15
smiles,measurement,setting,value
"Nc1ccncc1 [4-AP, 4-aminopyridine]",Body Swing Test (% right Swing),"[1]; Group I, D32, individual animals",43.33% (2×) and 50.00% (3×) and 53.33% (3×) and 26.67% and 33.33% (3×) and 40.00% (2×) and 30.00%
same,"Body Swing Test (% right Swing), Mean","[1]; Group I, D32, mean of N 15",42.22%
same,Body Swing Test (% right Swing),"[1]; Group I, D44, low dose phase (inferred), individual animals",33.33% (3×) and 56.67% and 43.33% (3×) and 26.67% (2×) and 50.00% and 40.00% (2×) and 46.67% and 30.00% (2×)
same,"Body Swing Test (% right Swing), Mean","[1]; Group I, D44, low dose phase (inferred), mean of N 15",38.44%
same,Body Swing Test (% right Swing),"[1]; Group I, D46, individual animals",36.67% (3×) and 43.33% (4×) and 33.33% (3×) and 30.00% and 53.33% and 20.00% (2×) and 40.00%
same,"Body Swing Test (% right Swing), Mean","[1]; Group I, D46, mean of N 15",36.44%
same,Body Swing Test (% right Swing),[1]; [4],20.00% and 40.00% and 16.67% and 30.00% and 36.67% and 33.33% (2×) and 23.33% and 53.33% and 26.67%
same,"Body Swing Test (% right Swing), Mean","[1]; Group II, D30, mean of N 15",32.89%
same,Body Swing Test (% right Swing),[1]; [5],33.33% (5×) and 40.00% and 43.33% (2×) and 30.00% and 46.67%
same,"Body Swing Test (% right Swing), Mean","[1]; Group II, D32, mean of N 15",37.78%
same,Body Swing Test (% right Swing),[1]; [6],46.67% (3×) and 33.33% (3×) and 26.67% and 40.00% and 43.33% and 50.00%
same,"Body Swing Test (% right Swing), Mean","[1]; Group II, D58, mean of N 15",40.67%
same,Body Swing Test (% right Swing),[1]; [7],43.33% and 40.00% (2×) and 33.33% (2×) and 46.67% (2×) and 36.67% and 50.00% (2×)
same,"Body Swing Test (% right Swing), Mean","[1]; Group II, D60, mean of N 15",42.67%
same,"Body Swing Test (% right Swing), Mean",[1]; [8],39.56%
same,"Body Swing Test (% right Swing), Mean",[1]; [9],40.44%
same,"Body Swing Test (% right Swing), Mean",[1]; [10],34.89%
same,"Body Swing Test (% right Swing), Mean",[1]; [11],35.11%
same,effect on global body control (body swing test),"[1]; low or high dose, rats after MCAO, reversible and dose-dependent",effective to improve the percentage of rightward over total swings; also recorded: significant improvement
same,Hindlimb Placing Total Score,[2]; [4],2.50 and 1.50 (4×) and 2.00 (3×) and 1.00 and 0.50
same,"Hindlimb Placing Total Score, Mean","[2]; Group II, D30, mean of N 15",1.73
same,Hindlimb Placing Total Score,[2]; [5],2.00 and 1.00 (3×) and 1.50 (5×) and 0.50
same,"Hindlimb Placing Total Score, Mean","[2]; Group II, D32, mean of N 15",1.37
same,Hindlimb Placing Total Score,[2]; [6],2.00 and 0.00 (4×) and 1.00 and 1.50 (3×) and 0.50
same,"Hindlimb Placing Total Score, Mean","[2]; Group II, D58, mean of N 15",0.83
same,Hindlimb Placing Total Score,[2]; [7],0.50 (3×) and 0.00 (6×) and 1.00
same,"Hindlimb Placing Total Score, Mean","[2]; Group II, D60, mean of N 15",0.23
same,"Hindlimb Placing Total Score, Mean",[2]; [8],0.90
same,"Hindlimb Placing Total Score, Mean",[2]; [9],0.30
same,"Hindlimb Placing Total Score, Mean",[2]; [10],0.80
same,"Hindlimb Placing Total Score, Mean",[2]; [11],0.70
same,"Hindlimb Placing Total Score, Mean","[2]; group mean N=15, Group I, Phase 1, D30, High 4-AP 2.0 mg/kg b.i.d. p.o., after first dose",1.67
same,"Hindlimb Placing Total Score, Mean","[2]; group mean N=15, Group I, Phase 1, D32, High 4-AP 2.0 mg/kg b.i.d. p.o., after 5th dose",0.97
same,"Hindlimb Placing Total Score, Mean","[2]; group mean N=15, Group I, Phase 2, D44, Low 4-AP 0.63 mg/kg b.i.d. p.o., after first dose",1.33
same,"Hindlimb Placing Total Score, Mean","[2]; group mean N=15, Group I, Phase 2, D46, Low 4-AP 0.63 mg/kg b.i.d. p.o., after 5th dose",1.13
same,Hindlimb Placing Total Score,"[2]; individual animals, Group I, Phase 1, D30, High 4-AP 2.0 mg/kg b.i.d. p.o., 60 min after first dose, 0=normal, 6=maximally impaired",1.50 (7×) and 3.00 (2×) and 2.50 (2×) and 2.00 and 1.00 and 0.00 and 0.50
same,Hindlimb Placing Total Score,"[2]; individual animals, Group I, Phase 1, D32, High 4-AP 2.0 mg/kg b.i.d. p.o., 1 h after 5th dose, 0=normal, 6=maximally impaired",1.00 and 3.00 and 1.50 (6×) and 0.00 (4×) and 0.50 (3×)
same,Hindlimb Placing Total Score,"[2]; individual animals, Group I, Phase 2, D44, Low 4-AP 0.63 mg/kg b.i.d. p.o., 60 min after first dose, 0=normal, 6=maximally impaired",2.00 (4×) and 3.00 and 1.50 (3×) and 0.50 (2×) and 0.00 (3×) and 2.50 and 1.00
same,Hindlimb Placing Total Score,"[2]; individual animals, Group I, Phase 2, D46, Low 4-AP 0.63 mg/kg b.i.d. p.o., 1 h after 5th dose, 0=normal, 6=maximally impaired",2.00 (3×) and 3.00 and 1.50 (4×) and 0.00 (4×) and 0.50 (2×) and 1.00
same,effect on hindlimb function (hindlimb placing test),"[2]; low or high dose, 4 weeks post ischemic brain injury, rats, dose responsive, reversible",effective to improve hindlimb function; also recorded: significant improvement
same,plasma concentrations obtained in clinical studies,[3],< 1 µM

# Reference: US20130030025A1, “USE OF POTASSIUM CHANNEL BLOCKERS TO TREAT CEREBRAL PALSY” (priority 2011, published 2013)
